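Where inhibition never reached the appropriate level, the endpoint shown equals the highest concentration tested. Otherwise, values were interpolated linearly from a five-concentration, 48-hour dose response in 96-well plates. The concentration for 50% growth inhibition is given as GI50.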 Active and inactive are the calls of the source. No stated cut-off is given here; in the data, active = GI50 up to about 1.1 µM and inactive = higher.
Experiments:
Assay in all cases: NCI-60 cell line screen, 48 h
HCT-15 = tested on: HCT-15
MOLT-4 = tested on: MOLT-4
SF-268 = tested on: SF-268
NCI-H226 = tested on: NCI-H226
HCT-116 = tested on: HCT-116
SK-MEL-28 = tested on: SK-MEL-28
HCC 2998 = tested on: HCC 2998
OVCAR-8 = tested on: OVCAR-8
Malme-3M = tested on: Malme-3M
A549 = tested on: A549
OVCAR-3 = tested on: OVCAR-3
M14 = tested on: M14
IGROV-1 = tested on: IGROV-1
SNB-75 = tested on: SNB-75
SK-MEL-2 = tested on: SK-MEL-2
RXF 393 = tested on: RXF 393

| SMILES | GI50 (HCT-15) [µM] | GI50 (MOLT-4) | GI50 (SF-268) | GI50 (NCI-H226) | GI50 (HCT-116) | GI50 (SK-MEL-28) | GI50 (HCC 2998) | GI50 (OVCAR-8) | GI50 (Malme-3M) | GI50 (A549) | GI50 (OVCAR-3) | GI50 (M14) | GI50 (IGROV-1) | GI50 (SNB-75) | GI50 (SK-MEL-2) | GI50 (RXF 393) |
| --- | --- | --- | --- | --- | --- | --- | --- | --- | --- | --- | --- | --- | --- | --- | --- | --- |
| c1ccc2c(c1)CCc1c(-c3ccncc3)n[nH]c1-2 | 32.1 | 36 µM (inactive) | 28.8 µM (inactive) | 23 µM (inactive) | 22.2 µM (inactive) | 23.8 µM (inactive) | 33.1 µM (inactive) | 29.4 µM (inactive) | 33.5 µM (inactive) | 30.8 µM (inactive) | 16.7 µM (inactive) | 22.8 µM (inactive) | 26.4 µM (inactive) | 26.3 µM (inactive) | 17.9 µM (inactive) |  |
| O=C(O)C1=C(C(=O)Nc2ccccc2)C2C=CC1C2 (configuration not stated) | > 100 | > 100 µM (inactive) | > 100 µM (inactive) |  | > 100 µM (inactive) | > 100 µM (inactive) | > 100 µM (inactive) | > 100 µM (inactive) | > 100 µM (inactive) | > 100 µM (inactive) | > 100 µM (inactive) | > 100 µM (inactive) | > 100 µM (inactive) | > 100 µM (inactive) |  | > 100 µM (inactive) |
| OC1(c2ccccc2)OC(C#Cc2ccccc2)(c2ccccc2)c2ccccc21 (configuration not stated) | 3.44 | 2.08 µM (inactive) | 4.18 µM (inactive) | 2.62 µM (inactive) | 1.7 µM (inactive) |  |  | 2.45 µM (inactive) | 10.6 µM (inactive) | 3.86 µM (inactive) | 2.31 µM (inactive) | 2.21 µM (inactive) | 11 µM (inactive) | 6.1 µM (inactive) |  | 1.95 µM (inactive) |
| O=C1C(O)=C(CCCc2ccc(Oc3ccccc3)cc2)C(=O)c2ccccc21 | 4.28 | 4.19 µM (inactive) | 7.64 µM (inactive) | 10.8 µM (inactive) | 3.7 µM (inactive) | 17.9 µM (inactive) | 25.7 µM (inactive) | 7.76 µM (inactive) | 12.9 µM (inactive) |  | 6.53 µM (inactive) | 10.5 µM (inactive) | 6.19 µM (inactive) | 24.4 µM (inactive) | 10.2 µM (inactive) | 14.4 µM (inactive) |
| COC(=O)C1=C(CO)C2C=CC1C2 (configuration not stated) | > 100 | > 100 µM (inactive) | > 100 µM (inactive) | > 100 µM (inactive) | > 100 µM (inactive) |  | > 100 µM (inactive) | > 100 µM (inactive) | > 100 µM (inactive) | > 100 µM (inactive) | > 100 µM (inactive) | > 100 µM (inactive) | > 100 µM (inactive) | > 100 µM (inactive) | > 100 µM (inactive) | > 100 µM (inactive) |
| CCOC(=O)c1c2cccccc2n2c(=O)cc(C)nc12 | > 100 | > 100 µM (inactive) | 69.8 µM (inactive) | > 100 µM (inactive) |  | > 100 µM (inactive) | > 100 µM (inactive) | > 100 µM (inactive) |  | > 100 µM (inactive) | > 100 µM (inactive) | > 100 µM (inactive) | > 100 µM (inactive) |  | > 100 µM (inactive) | > 100 µM (inactive) |
| c1ccc(C2N=NN(c3ccccc3)C2N2CCCCC2)cc1 (configuration not stated) | > 100 | > 100 µM (inactive) | 46.5 µM (inactive) | > 100 µM (inactive) | > 100 µM (inactive) | > 100 µM (inactive) | > 100 µM (inactive) | > 10 µM (inactive) | > 100 µM (inactive) | > 100 µM (inactive) | > 100 µM (inactive) | > 100 µM (inactive) | 52.2 µM (inactive) | 20 µM (inactive) | > 100 µM (inactive) |  |
| Cc1ccc(NC(=O)c2nc(S)nc(N)c2-c2ccccc2C)cc1C | > 100 | > 100 µM (inactive) | > 100 µM (inactive) | > 100 µM (inactive) | > 100 µM (inactive) | > 100 µM (inactive) |  | > 100 µM (inactive) | > 100 µM (inactive) | > 100 µM (inactive) | > 100 µM (inactive) | > 100 µM (inactive) | > 100 µM (inactive) | > 100 µM (inactive) | > 100 µM (inactive) | > 100 µM (inactive) |
| Nc1nc(N)c(N=O)c(Nc2ccc(I)cc2)n1 | 12.2 | 3.98 µM (inactive) | 13.9 µM (inactive) |  | 14.3 µM (inactive) | 14 µM (inactive) | 27.5 µM (inactive) | 29.4 µM (inactive) | 19.2 µM (inactive) | 65.8 µM (inactive) | 13.2 µM (inactive) | 12.4 µM (inactive) | 3.94 µM (inactive) |  | 15.3 µM (inactive) | 17.9 µM (inactive) |
| CC(C)(C)c1cc(CCC(=O)Nc2ccc(Cl)cc2Cl)nc(N)n1 | > 100 | > 100 µM (inactive) | > 100 µM (inactive) | > 100 µM (inactive) | > 100 µM (inactive) | > 100 µM (inactive) | > 100 µM (inactive) | > 100 µM (inactive) | > 100 µM (inactive) | > 100 µM (inactive) | > 100 µM (inactive) | > 100 µM (inactive) | > 100 µM (inactive) |  | > 100 µM (inactive) | > 100 µM (inactive) |
| Cc1ccc(NC(=O)CC2SC(Nc3cccc(Cl)c3C)=NC2=O)cc1 (configuration not stated) | 76.9 | 33 µM (inactive) | 37 µM (inactive) |  |  | 40.9 µM (inactive) | 99.8 µM (inactive) | 40.6 µM (inactive) | 52.4 µM (inactive) | 51.1 µM (inactive) | 23 µM (inactive) | 38.8 µM (inactive) | 94.8 µM (inactive) | > 100 µM (inactive) | 44.6 µM (inactive) |  |
| CCCCCCCCCc1cc(=O)c2ccc(OCc3ccccc3)cc2o1 | > 100 |  | > 100 µM (inactive) | 34.7 µM (inactive) | 71.3 µM (inactive) | > 100 µM (inactive) | > 100 µM (inactive) | > 100 µM (inactive) | 25.8 µM (inactive) | 70.8 µM (inactive) | > 100 µM (inactive) | > 100 µM (inactive) | > 100 µM (inactive) | 30.8 µM (inactive) | 43.1 µM (inactive) | 96.2 µM (inactive) |
| CC1CCCC(C(=O)/C(=C/c2cccc(Cl)c2)C(=O)C(=O)O)C1 (configuration not stated) | 13.8 | 19 µM (inactive) | 42.1 µM (inactive) | > 100 µM (inactive) | 13.8 µM (inactive) | 37 µM (inactive) | 12.8 µM (inactive) | 20.3 µM (inactive) | > 100 µM (inactive) | 60.7 µM (inactive) | 24.7 µM (inactive) | 29.7 µM (inactive) | 30.9 µM (inactive) | 29.9 µM (inactive) |  |  |
| Cc1nc(=O)n2c(C)n[nH]c2c1C(=O)Nc1cc(Cl)cc(Cl)c1 | 19.3 | 26.9 µM (inactive) | 33.3 µM (inactive) | 24.8 µM (inactive) | 27.5 µM (inactive) | 26.1 µM (inactive) |  | 45.5 µM (inactive) | 30.9 µM (inactive) | 19.2 µM (inactive) | 14.2 µM (inactive) | 35.6 µM (inactive) | 24.5 µM (inactive) | 37.2 µM (inactive) |  | 11.9 µM (inactive) |
| COc1ccc(OC)c2c1C(=O)C1CC1(Br)C2=O (configuration not stated) | > 100 | > 100 µM (inactive) | > 100 µM (inactive) |  | > 100 µM (inactive) | > 100 µM (inactive) | > 100 µM (inactive) | > 100 µM (inactive) | > 100 µM (inactive) | > 100 µM (inactive) | > 100 µM (inactive) | > 100 µM (inactive) | > 100 µM (inactive) |  | > 100 µM (inactive) |  |
| OCCC1(O)CCC(O)CC1 (configuration not stated) | > 100 | > 100 µM (inactive) | > 100 µM (inactive) | > 100 µM (inactive) | > 100 µM (inactive) | > 100 µM (inactive) | > 100 µM (inactive) | > 100 µM (inactive) | > 100 µM (inactive) | > 100 µM (inactive) | > 100 µM (inactive) | > 100 µM (inactive) | > 100 µM (inactive) | 75.7 µM (inactive) | > 100 µM (inactive) |  |
| O=C(CC(=O)N1N=C(n2ccc3ccccc32)CC1c1ccccc1)Nc1ccc(Cl)cc1 (configuration not stated) | > 100 | 8.39 µM (inactive) | > 100 µM (inactive) |  | > 100 µM (inactive) | > 100 µM (inactive) | > 100 µM (inactive) | > 100 µM (inactive) | > 100 µM (inactive) | > 100 µM (inactive) | > 100 µM (inactive) | > 100 µM (inactive) | > 100 µM (inactive) | 59.7 µM (inactive) | > 100 µM (inactive) | > 100 µM (inactive) |
| C[C@]12CCCC(=O)C1(O)C[C@H](C(=O)O)CC2 (some centres not stated) | > 100 | > 100 µM (inactive) | > 100 µM (inactive) | > 100 µM (inactive) | > 100 µM (inactive) | > 100 µM (inactive) | > 100 µM (inactive) | > 100 µM (inactive) | > 100 µM (inactive) | > 100 µM (inactive) | > 100 µM (inactive) | > 100 µM (inactive) | > 100 µM (inactive) | > 100 µM (inactive) | > 100 µM (inactive) |  |
| COc1cccc2c1C(=O)c1c(O)c3c(c(O)c1C2=O)C[C@@](O)(C(=O)CO)CC3OC1CC(N(C)CCOCC(OC(C)=O)OC(C)=O)C(O)C(C)O1 (some centres not stated) |  | > 0.01 µM (active) | > 0.01 µM (active) | > 0.01 µM (active) |  | > 0.01 µM (active) | > 0.01 µM (active) | > 0.01 µM (active) | > 0.01 µM (active) | > 0.01 µM (active) | > 0.01 µM (active) | > 0.01 µM (active) | > 0.01 µM (active) | > 0.01 µM (active) | > 0.01 µM (active) | > 0.01 µM (active) |
| CC(O)(c1ccc(OCCC[N+](C)(C)C)cc1)C(C)(O)c1ccc(OCCC[N+](C)(C)C)cc1 (configuration not stated) | > 100 |  | > 100 µM (inactive) | > 100 µM (inactive) | > 100 µM (inactive) | > 100 µM (inactive) | > 100 µM (inactive) | > 100 µM (inactive) | > 100 µM (inactive) | > 100 µM (inactive) | > 100 µM (inactive) | > 100 µM (inactive) | > 100 µM (inactive) | > 100 µM (inactive) | > 100 µM (inactive) | > 100 µM (inactive) |
